Source: patent publication US8324383B2, “Methods of making polymorphs of benzoate salt of 2-[[6-[(3R)-3-amino-1-piperidinyl]-3,4-dihydro-3-methyl-2,4-dioxo-1(2H)-pyrimidinyl]methyl]-benzonitrile” (Takeda Pharmaceutical Company Limited, priority 2006, dated 2012)
“Also recorded” adds a separate entry of the source. Structures can show the parent of a compound that is named as a salt. Where two headings read alike, the source gives them in different places.

Experiments:
Format in all cases: physicochemical
[1] = Stress studies (relative humidity / temperature), solid form by XRPD; conditions: for Result (solid form by XRPD after stress): glassy material
Protocol: Vapor Stress (VS) Experiments: Form A was dispensed into a small vial, which was placed, uncapped, in a larger vial containing a diffusing solvent. The larger vial was sealed and stored at ambient temperature. Samples were also stressed in ovens at elevated temperatures and under different relative humidity conditions.
X-ray powder diffraction analyses were performed using a Shimadzu XRD-6000 X-ray powder diffractometer using Cu Kα radiation. The instrument is equipped with a long fine focus X-ray tube. The tube voltage and amperage were set to 40 kV and 40 mA, respectively. The divergence and scattering slits were set at 1° and the receiving slit was set at 0.15 mm. Diffracted radiation was detected by a NaI scintillation detector. A θ-2θ continuous scan at 3°/min (0.4 sec/0.02° step) from 2.5 to 40 °2θ was used. A silicon standard was analyzed to check the instrument alignment. Data were collected and analyzed using XRD-6000 v. 4.1. Samples were prepared for analysis by placing them in an aluminum holder with silicon insert.

[2] = Thermal analysis (DSC, TGA, melting point) - thermal stability; conditions: solid phase
Protocol: Differential scanning calorimetry was performed using a TA Instruments differential scanning calorimeter 2920. The sample was placed into an aluminum DSC pan, and the weight accurately recorded. The pan was covered with a lid and then crimped. The sample cell was equilibrated at ambient temperature and heated under a nitrogen purge at a rate of 10° C./min, up to a final temperature of 350° C. Indium metal was used as the calibration standard. Reported temperatures are at the transition maxima.
Thermogravimetric analyses were performed using a TA Instruments 2950 thermogravimetric analyzer. Each sample was placed in an aluminum sample pan and inserted into the TG furnace. The furnace was first equilibrated at ambient temperature, then heated under nitrogen at a rate of 10° C./min, up to a final temperature of 350° C. Nickel and Alumel™ were used as the calibration standards.
Hot stage microscopy was performed using a Linkam hot stage mounted on a Leica DM LP microscope. Samples were observed using a 20× objective with a lambda plate with crossed polarizers. Samples were sandwiched between two coverslips and visually observed as the stage was heated. Images were captured using a SPOT Insight™ color digital camera with SPOT Software v. 3.5.8. The hot stage was calibrated using sulfapyridine and vanillin USP melting point standards.

[3] = Solubility estimates in test solvents (aliquot addition, visual inspection); conditions: room temperature, approximate
Protocol: A weighed sample of Compound I was treated with aliquots of the test solvent at room temperature. The mixture was sonicated between aliquot additions to facilitate dissolution. Complete dissolution of the test material was determined by visual inspection. Solubilities were estimated from these experiments based on the total solvent used to provide complete dissolution. The actual solubility may be greater than those calculated because of the use of solvent aliquots that were too large or due to a slow rate of dissolution. […] If complete dissolution was achieved as a result of only one aliquot addition, the solubility is expressed as “greater than.”

[4] = Moisture sorption/desorption analysis (VTI SGA-100); conditions: for moisture sorption behaviour in words: moisture sorption/desorption analysis; for solid form of the sample after moisture sorption/desorption (XRPD): post moisture sorption/desorption sample
Protocol: Moisture sorption/desorption data were collected on a VTI SGA-100 Vapor Sorption Analyzer. Sorption and desorption data were collected over a range of 5% to 95% relative humidity (RH) at 10% RH intervals under a nitrogen purge. Samples were not dried prior to analysis. Equilibrium criteria used for analysis were less than 0.0100% weight change in 5 minutes, with a maximum equilibration time of 3 hours if the weight criterion was not met. Data were not corrected for the initial moisture content of the samples. NaCl and PVP were used as calibration standards.

SMILES: Cn1c(=O)cc(N2CCC[C@@H](N)C2)n(Cc2ccccc2C#N)c1=O.O=C(O)c1ccccc1 [Compound 1924-83-05]
- Result (solid form by XRPD after stress) ([1]; stress 40° C., 9 days): form A

SMILES: Cn1c(=O)cc(N2CCC[C@@H](N)C2)n(Cc2ccccc2C#N)c1=O.O=C(O)c1ccccc1 [Compound 1924-83-06]
- Result (solid form by XRPD after stress) ([1]; stress 79% RH/40° C., 9 days): form A

SMILES: Cn1c(=O)cc(N2CCC[C@@H](N)C2)n(Cc2ccccc2C#N)c1=O.O=C(O)c1ccccc1 [Compound 1966-27-02]
- Result (solid form by XRPD after stress) ([1]; stress 79% RH/60° C., 3 hrs): form A

SMILES: Cn1c(=O)cc(N2CCC[C@@H](N)C2)n(Cc2ccccc2C#N)c1=O [Form A, benzoate salt of 2-[[6-[(3R)-3-amino-1-piperidinyl]-3,4-dihydro-3-methyl-2,4-dioxo-1(2H)-pyrimidinyl]methyl]-benzonitrile]
- thermally stable (temperature) [2]: above 172 °C
- solubility ([3]; ethanol, organic solvent or mixture, thermodynamic from solid, solvent EtOH, read-out: Solubility): < 3000 µg/mL
- solubility ([3]; methanol, organic solvent or mixture, thermodynamic from solid, solvent MeOH, read-out: Solubility): 13000 µg/mL
- solubility ([3]; organic solvent or mixture, thermodynamic from solid, solvent CAN, read-out: Solubility): < 1000 µg/mL
- solubility ([3]; organic solvent or mixture, thermodynamic from solid, solvent CH2Cl2, read-out: Solubility): < 3000 µg/mL
- solubility ([3]; organic solvent or mixture, thermodynamic from solid, solvent DMF, read-out: Solubility): 6000 µg/mL
- solubility ([3]; organic solvent or mixture, thermodynamic from solid, solvent EtOAc, read-out: Solubility): < 3000 µg/mL
- solubility ([3]; organic solvent or mixture, thermodynamic from solid, solvent IPA, read-out: Solubility): < 1000 µg/mL
- solubility ([3]; organic solvent or mixture, thermodynamic from solid, solvent MEK, read-out: Solubility): 3000 µg/mL
- solubility ([3]; organic solvent or mixture, thermodynamic from solid, solvent MIBK, read-out: Solubility): < 3000 µg/mL
- solubility ([3]; organic solvent or mixture, thermodynamic from solid, solvent THF, read-out: Solubility): < 1000 µg/mL
- solubility ([3]; organic solvent or mixture, thermodynamic from solid, solvent acetone, read-out: Solubility): < 3000 µg/mL
- solubility ([3]; organic solvent or mixture, thermodynamic from solid, solvent dioxane, read-out: Solubility): < 1000 µg/mL
- solubility ([3]; solvent CH2Cl2, listed as Compound I Form A): <3000 µg/mL
- solubility ([3]; solvent EtOAc, listed as Compound I Form A): <3000 µg/mL
- solubility ([3]; solvent EtOH, listed as Compound I Form A): <3000 µg/mL
- solubility ([3]; solvent MIBK, listed as Compound I Form A): <3000 µg/mL
- solubility ([3]; solvent acetone, listed as Compound I Form A): <3000 µg/mL
- solubility ([3]; thermodynamic from solid, solvent water, read-out: Solubility): 8000 µg/mL
- phase change upon RH stress (XRPD) ([1]; various RH conditions at room temperature, several weeks): none of these samples had undergone a phase change
- Weight chg (%) ([4]; RH 5.18%, 25.20 °C, 14.1 min): 0.002%
- weight loss ([4]; between 9% and 95% RH): about 0.05%
- Weight chg (%) ([4]; desorption, RH 4.82%, 25.20 °C, 163.7 min): −0.004%
- Weight chg (%) ([4]; desorption, RH 14.97%, 25.21 °C, 153.7 min): 0.032%
- Weight chg (%) ([4]; desorption, RH 24.96%, 25.22 °C, 146.7 min): 0.035%
- Weight chg (%) ([4]; desorption, RH 34.97%, 25.21 °C, 139.7 min): 0.008%
- Weight chg (%) ([4]; desorption, RH 45.01%, 25.22 °C, 131.7 min): 0.012%
- Weight chg (%) ([4]; desorption, RH 55.13%, 25.21 °C, 123.7 min): 0.014%
- Weight chg (%) ([4]; desorption, RH 65.04%, 25.21 °C, 114.7 min): 0.016%
- Weight chg (%) ([4]; desorption, RH 75.06%, 25.21 °C, 105.7 min): 0.017%
- Weight chg (%) ([4]; desorption, RH 85.20%, 25.21 °C, 97.0 min): 0.019%
- initial weight gain ([4]; from ambient conditions to 55% RH): approximately 0.035%
- moisture sorption behaviour in words [4]: variable hydrate
- solid form of the sample after moisture sorption/desorption (XRPD) [4]: form A
- Weight chg (%) ([4]; sorption, RH 14.96%, 25.22 °C, 21.1 min): 0.001%
- Weight chg (%) ([4]; sorption, RH 24.97%, 25.20 °C, 28.2 min): 0.001%
- Weight chg (%) ([4]; sorption, RH 35.05%, 25.20 °C, 35.2 min): 0.002%
- Weight chg (%) ([4]; sorption, RH 44.89%, 25.20 °C, 42.2 min): 0.004%
- Weight chg (%) ([4]; sorption, RH 54.85%, 25.19 °C, 51.2 min): 0.035%
- Weight chg (%) ([4]; sorption, RH 64.93%, 25.21 °C, 60.2 min): 0.039%
- Weight chg (%) ([4]; sorption, RH 74.86%, 25.20 °C, 69.2 min): 0.041%
- Weight chg (%) ([4]; sorption, RH 84.87%, 25.21 °C, 78.2 min): 0.045%
- Weight chg (%) ([4]; sorption, RH 94.56%, 25.21 °C, 87.2 min): 0.049%
- Weight chg (%) ([4]; start, RH 9.14%, 25.20 °C, 0.1 min): 0.000%

SMILES: Cn1c(=O)cc(N2CCC[C@@H](N)C2)n(Cc2ccccc2C#N)c1=O.O=C(O)c1ccccc1 [Compound 1966-27-01]
- Result (solid form by XRPD after stress) ([1]; stress 79% RH/60° C., 1 hr): form A

SMILES: Cn1c(=O)cc(N2CCC[C@@H](N)C2)n(Cc2ccccc2C#N)c1=O [amorphous Form 1, benzoate salt of 2-[[6-[(3R)-3-amino-1-piperidinyl]-3,4-dihydro-3-methyl-2,4-dioxo-1(2H)-pyrimidinyl]methyl]-benzonitrile]
- Weight chg (%) ([4]; Sample RH 5.25, 25.00 °C, 151.0 min): −0.953%
- weight gain ([4]; between 5% and 95% RH): about 6.5%
- weight loss ([4]; between 85% and 95% RH): about 5%
- Weight chg (%) ([4]; desorption, Sample RH 5.06, 24.99 °C, 2238.3 min): −2.007%
- Weight chg (%) ([4]; desorption, Sample RH 15.16, 24.99 °C, 2221.4 min): −1.980%
- Weight chg (%) ([4]; desorption, Sample RH 24.87, 24.99 °C, 2199.9 min): −1.946%
- Weight chg (%) ([4]; desorption, Sample RH 34.87, 24.99 °C, 2081.7 min): −1.737%
- Weight chg (%) ([4]; desorption, Sample RH 45.08, 25.01 °C, 1894.1 min): −1.208%
- Weight chg (%) ([4]; desorption, Sample RH 55.16, 25.00 °C, 1706.6 min): −0.421%
- Weight chg (%) ([4]; desorption, Sample RH 65.12, 24.98 °C, 1517.0 min): 0.655%
- Weight chg (%) ([4]; desorption, Sample RH 75.25, 24.98 °C, 1327.5 min): 1.908%
- Weight chg (%) ([4]; desorption, Sample RH 85.49, 24.98 °C, 1139.9 min): 3.348%
- initial weight loss ([4]; from ambient conditions to 5% RH): approximately 1%
- moisture sorption behaviour in words [4]: very hygroscopic
- solid form of the sample after moisture sorption/desorption (XRPD) [4]: matched form A; also recorded: tentatively identified as containing form A
- Weight chg (%) ([4]; sorption, Sample RH 14.81, 25.00 °C, 197.3 min): −0.456%
- Weight chg (%) ([4]; sorption, Sample RH 24.80, 24.99 °C, 253.1 min): 0.025%
- Weight chg (%) ([4]; sorption, Sample RH 34.93, 24.98 °C, 329.5 min): 0.569%
- Weight chg (%) ([4]; sorption, Sample RH 44.84, 24.99 °C, 508.3 min): 1.669%
- Weight chg (%) ([4]; sorption, Sample RH 54.90, 24.98 °C, 603.1 min): 3.680%
- Weight chg (%) ([4]; sorption, Sample RH 64.85, 24.97 °C, 655.1 min): 5.782%
- Weight chg (%) ([4]; sorption, Sample RH 74.54, 24.98 °C, 723.7 min): 8.432%
- Weight chg (%) ([4]; sorption, Sample RH 84.54, 24.98 °C, 764.6 min): 10.125%
- Weight chg (%) ([4]; sorption, Sample RH 94.62, 24.95 °C, 952.3 min): 5.474%
- Weight chg (%) ([4]; start, Sample RH 53.89, 24.98 °C, 0.1 min): 0.000%
- weight gain ([4]; under 85% RH): 10%
